Test results published in patent US7074789B2, “Kinase inhibitors” (Amgen Inc., priority 1999, dated 2006).

Key:
Assay type in all cases: biochemical
Lck = molecular target: T1, Lck (Homo sapiens, UniProt P06239); assay: Kinase inhibition assay (33P transfer), Lck; settings: Table 3, class symbols; read-out: Lck-1
T1 construct: Kinases are expressed as either kinase domains or full length constructs; made in house
Outline: (§1)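 Measured by scintillation: radiolabelled phosphate added by tagged recombinant kinases to poly(Glu,Tyr) 4:1 or poly(Arg,Ser) 3:1 attached to microtiter wells, counted once free label was washed away with 0.5% phosphoric acid.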

Zap-70 = molecular target: T2, Zap-70 (Homo sapiens, UniProt P43403); assay: Kinase inhibition assay (33P transfer), Zap-70; settings: Table 3, class symbols; read-out: Zap-1
T2 construct: Kinases are expressed as either kinase domains or full length constructs; made in house
T2 sequence (P43403 1-619): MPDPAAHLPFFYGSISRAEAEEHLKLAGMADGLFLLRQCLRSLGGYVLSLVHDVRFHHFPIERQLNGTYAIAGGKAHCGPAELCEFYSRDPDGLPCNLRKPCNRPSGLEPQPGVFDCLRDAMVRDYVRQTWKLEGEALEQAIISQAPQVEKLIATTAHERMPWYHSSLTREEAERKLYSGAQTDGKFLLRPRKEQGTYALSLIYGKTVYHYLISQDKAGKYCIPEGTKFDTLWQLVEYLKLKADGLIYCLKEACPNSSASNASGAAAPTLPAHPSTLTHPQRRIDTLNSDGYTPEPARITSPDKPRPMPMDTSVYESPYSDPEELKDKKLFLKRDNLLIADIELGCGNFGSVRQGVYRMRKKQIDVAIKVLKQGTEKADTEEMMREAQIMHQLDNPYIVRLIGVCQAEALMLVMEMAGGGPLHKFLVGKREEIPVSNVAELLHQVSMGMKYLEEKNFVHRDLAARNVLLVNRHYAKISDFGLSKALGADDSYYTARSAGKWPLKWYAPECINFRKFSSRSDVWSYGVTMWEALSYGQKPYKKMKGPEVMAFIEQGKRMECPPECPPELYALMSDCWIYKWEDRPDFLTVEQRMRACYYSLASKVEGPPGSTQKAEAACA
Outline: as §1

Itk = molecular target: T3, Itk (Homo sapiens, UniProt Q08881); assay: Kinase inhibition assay (33P transfer), Itk; settings: Table 3, class symbols; read-out: Itk-1
T3 construct: Kinases are expressed as either kinase domains or full length constructs; made in house
T3 sequence (Q08881 1-620): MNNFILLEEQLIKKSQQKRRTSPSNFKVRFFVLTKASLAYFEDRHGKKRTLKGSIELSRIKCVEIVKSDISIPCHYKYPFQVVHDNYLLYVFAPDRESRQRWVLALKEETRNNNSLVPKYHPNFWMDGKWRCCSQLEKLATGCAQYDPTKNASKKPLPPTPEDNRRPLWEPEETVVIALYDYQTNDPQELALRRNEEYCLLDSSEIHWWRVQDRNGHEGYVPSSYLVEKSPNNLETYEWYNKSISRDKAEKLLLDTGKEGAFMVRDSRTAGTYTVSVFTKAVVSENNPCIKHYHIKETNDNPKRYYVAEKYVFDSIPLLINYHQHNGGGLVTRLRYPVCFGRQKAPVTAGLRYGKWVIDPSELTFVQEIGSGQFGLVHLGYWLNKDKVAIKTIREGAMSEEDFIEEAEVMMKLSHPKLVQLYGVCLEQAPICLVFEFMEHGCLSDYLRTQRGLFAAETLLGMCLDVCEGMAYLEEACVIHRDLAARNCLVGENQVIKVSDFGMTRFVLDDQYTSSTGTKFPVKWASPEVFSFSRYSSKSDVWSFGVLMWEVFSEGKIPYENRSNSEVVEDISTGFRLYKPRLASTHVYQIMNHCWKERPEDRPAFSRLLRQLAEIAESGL
Outline: (§2)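 GST/His-fusion kinases, E. coli or High Five expressed, affinity purified; 33P-ATP, plate-coated poly(Glu,Tyr) 4:1 or poly(Arg,Ser) 3:1; 0.5% H3PO4 wash, scintillant, LSC.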

EGFR = molecular target: T4, EGFR (Homo sapiens, UniProt P00533); assay: Kinase inhibition assay (33P transfer), EGFR; settings: Table 2, class symbols A-E; read-out: EGFR-1
T4 construct: Kinases are expressed as either kinase domains or full length constructs; made in house
T4 sequence (P00533 25-1210, species assumed): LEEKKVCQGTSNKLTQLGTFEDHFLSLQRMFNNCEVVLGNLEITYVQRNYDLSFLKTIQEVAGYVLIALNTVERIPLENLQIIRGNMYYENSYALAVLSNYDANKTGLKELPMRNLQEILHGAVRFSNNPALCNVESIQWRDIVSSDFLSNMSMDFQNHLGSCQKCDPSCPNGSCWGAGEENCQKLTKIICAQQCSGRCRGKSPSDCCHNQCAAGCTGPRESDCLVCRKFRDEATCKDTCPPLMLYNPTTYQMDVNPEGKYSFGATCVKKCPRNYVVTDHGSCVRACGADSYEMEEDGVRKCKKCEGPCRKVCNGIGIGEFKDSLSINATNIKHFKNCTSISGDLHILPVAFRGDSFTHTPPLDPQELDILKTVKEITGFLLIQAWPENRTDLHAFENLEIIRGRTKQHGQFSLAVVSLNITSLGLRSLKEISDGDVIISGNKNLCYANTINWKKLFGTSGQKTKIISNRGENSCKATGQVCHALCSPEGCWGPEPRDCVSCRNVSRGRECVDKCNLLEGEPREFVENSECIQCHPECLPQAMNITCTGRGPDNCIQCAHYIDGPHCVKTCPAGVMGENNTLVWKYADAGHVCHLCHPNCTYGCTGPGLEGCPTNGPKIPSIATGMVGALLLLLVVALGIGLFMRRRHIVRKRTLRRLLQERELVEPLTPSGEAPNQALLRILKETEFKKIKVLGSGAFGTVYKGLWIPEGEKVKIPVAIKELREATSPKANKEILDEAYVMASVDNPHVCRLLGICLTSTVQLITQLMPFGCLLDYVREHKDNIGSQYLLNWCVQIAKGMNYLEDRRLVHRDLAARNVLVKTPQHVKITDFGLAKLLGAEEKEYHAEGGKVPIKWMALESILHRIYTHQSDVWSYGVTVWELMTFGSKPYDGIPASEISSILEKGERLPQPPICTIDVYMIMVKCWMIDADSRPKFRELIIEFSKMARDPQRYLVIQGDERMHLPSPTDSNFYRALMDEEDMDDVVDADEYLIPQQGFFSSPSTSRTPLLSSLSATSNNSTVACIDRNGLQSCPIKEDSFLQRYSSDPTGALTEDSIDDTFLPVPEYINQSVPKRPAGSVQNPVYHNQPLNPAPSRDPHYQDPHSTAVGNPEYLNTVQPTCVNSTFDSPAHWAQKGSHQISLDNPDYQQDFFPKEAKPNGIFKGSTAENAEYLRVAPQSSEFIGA
Outline: as §2

ErbB2 = molecular target: T5, ErbB2 (Homo sapiens, UniProt P04626); assay: Kinase inhibition assay (33P transfer), ErbB2; settings: read-out: ErbB2-2
T5 construct: Kinases are expressed as either kinase domains or full length constructs; made in house
T5 sequence (P04626 23-1255, species assumed): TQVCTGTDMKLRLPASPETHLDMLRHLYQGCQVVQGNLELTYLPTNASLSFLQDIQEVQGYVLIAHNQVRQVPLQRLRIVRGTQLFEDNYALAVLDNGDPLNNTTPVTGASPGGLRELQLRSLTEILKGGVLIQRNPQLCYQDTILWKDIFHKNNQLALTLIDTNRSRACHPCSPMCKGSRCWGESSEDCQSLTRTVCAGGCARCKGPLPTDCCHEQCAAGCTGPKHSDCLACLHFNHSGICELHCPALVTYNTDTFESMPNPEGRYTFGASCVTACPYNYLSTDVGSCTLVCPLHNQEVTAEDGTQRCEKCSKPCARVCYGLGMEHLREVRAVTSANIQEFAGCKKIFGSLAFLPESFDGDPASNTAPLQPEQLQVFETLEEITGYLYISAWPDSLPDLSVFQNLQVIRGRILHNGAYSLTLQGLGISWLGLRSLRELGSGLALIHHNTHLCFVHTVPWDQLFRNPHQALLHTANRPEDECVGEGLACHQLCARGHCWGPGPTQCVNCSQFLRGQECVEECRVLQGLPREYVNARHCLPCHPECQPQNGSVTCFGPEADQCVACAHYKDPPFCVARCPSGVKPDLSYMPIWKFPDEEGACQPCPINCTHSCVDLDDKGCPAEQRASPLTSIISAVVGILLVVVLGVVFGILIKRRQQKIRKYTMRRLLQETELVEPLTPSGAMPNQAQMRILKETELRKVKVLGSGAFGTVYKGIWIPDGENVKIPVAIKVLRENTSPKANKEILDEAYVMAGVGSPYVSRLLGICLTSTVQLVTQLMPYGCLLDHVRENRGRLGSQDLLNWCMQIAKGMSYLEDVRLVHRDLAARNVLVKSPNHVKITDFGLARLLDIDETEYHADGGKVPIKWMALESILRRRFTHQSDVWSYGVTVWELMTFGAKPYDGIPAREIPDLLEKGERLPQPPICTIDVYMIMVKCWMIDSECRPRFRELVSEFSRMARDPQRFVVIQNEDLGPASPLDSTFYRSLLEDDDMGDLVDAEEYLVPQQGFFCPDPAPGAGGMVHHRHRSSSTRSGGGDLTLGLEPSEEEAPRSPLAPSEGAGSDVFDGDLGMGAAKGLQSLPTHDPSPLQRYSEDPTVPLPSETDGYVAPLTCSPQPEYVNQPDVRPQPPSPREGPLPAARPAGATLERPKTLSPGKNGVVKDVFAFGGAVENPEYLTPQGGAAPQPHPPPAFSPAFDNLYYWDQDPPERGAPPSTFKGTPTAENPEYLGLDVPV
Outline: as §2

Kdr = molecular target: T6, Kdr (Homo sapiens, UniProt P35968); assay: Kinase inhibition assay (33P transfer), Kdr; settings: Table 3, class symbols; read-out: KDR-1
T6 construct: Kinases are expressed as either kinase domains or full length constructs; made in house
Outline: as §1

c-Met = molecular target: T7, c-Met (Homo sapiens, UniProt P08581); assay: Kinase inhibition assay (33P transfer), c-Met; settings: Table 2, class symbols A-E; read-out: Met-1
T7 construct: Kinases are expressed as either kinase domains or full length constructs; made in house
Outline: as §2

AKT = molecular target: T8, AKT (Homo sapiens, UniProt Q9Y243); assay: Kinase inhibition assay (33P transfer), AKT; settings: Table 2, class symbols A-E; read-out: AKT3-1
T8 construct: Kinases are expressed as either kinase domains or full length constructs; made in house
T8 sequence (Q9Y243 whole entry, the tested form may be a part): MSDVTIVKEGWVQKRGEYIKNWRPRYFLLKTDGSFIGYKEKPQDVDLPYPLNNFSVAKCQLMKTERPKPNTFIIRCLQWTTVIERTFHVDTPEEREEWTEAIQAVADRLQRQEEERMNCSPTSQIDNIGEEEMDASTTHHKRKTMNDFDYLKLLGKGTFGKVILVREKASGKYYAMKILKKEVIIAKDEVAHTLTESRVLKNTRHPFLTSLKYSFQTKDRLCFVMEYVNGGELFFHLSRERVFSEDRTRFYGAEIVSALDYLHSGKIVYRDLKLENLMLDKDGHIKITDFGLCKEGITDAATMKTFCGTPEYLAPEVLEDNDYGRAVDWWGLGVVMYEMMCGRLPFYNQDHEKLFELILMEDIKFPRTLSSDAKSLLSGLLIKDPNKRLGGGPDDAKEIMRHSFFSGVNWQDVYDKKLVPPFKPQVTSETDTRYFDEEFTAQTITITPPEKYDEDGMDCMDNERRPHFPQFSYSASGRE
Outline: as §1

IGFR-1 = molecular target: T9, IGFR-1 (Homo sapiens, UniProt P08069); assay: Kinase inhibition assay (33P transfer), IGFR-1; settings: Table 2, class symbols A-E
T9 construct: Kinases are expressed as either kinase domains or full length constructs; made in house

PDGFRB = molecular target: T10, PDGFRB (Homo sapiens, UniProt P09619); assay: Kinase inhibition assay (33P transfer), PDGFRB; settings: read-out: PDGFRB-1
T10 construct: Kinases are expressed as either kinase domains or full length constructs; made in house
T10 sequence (P09619 33-1106, species assumed): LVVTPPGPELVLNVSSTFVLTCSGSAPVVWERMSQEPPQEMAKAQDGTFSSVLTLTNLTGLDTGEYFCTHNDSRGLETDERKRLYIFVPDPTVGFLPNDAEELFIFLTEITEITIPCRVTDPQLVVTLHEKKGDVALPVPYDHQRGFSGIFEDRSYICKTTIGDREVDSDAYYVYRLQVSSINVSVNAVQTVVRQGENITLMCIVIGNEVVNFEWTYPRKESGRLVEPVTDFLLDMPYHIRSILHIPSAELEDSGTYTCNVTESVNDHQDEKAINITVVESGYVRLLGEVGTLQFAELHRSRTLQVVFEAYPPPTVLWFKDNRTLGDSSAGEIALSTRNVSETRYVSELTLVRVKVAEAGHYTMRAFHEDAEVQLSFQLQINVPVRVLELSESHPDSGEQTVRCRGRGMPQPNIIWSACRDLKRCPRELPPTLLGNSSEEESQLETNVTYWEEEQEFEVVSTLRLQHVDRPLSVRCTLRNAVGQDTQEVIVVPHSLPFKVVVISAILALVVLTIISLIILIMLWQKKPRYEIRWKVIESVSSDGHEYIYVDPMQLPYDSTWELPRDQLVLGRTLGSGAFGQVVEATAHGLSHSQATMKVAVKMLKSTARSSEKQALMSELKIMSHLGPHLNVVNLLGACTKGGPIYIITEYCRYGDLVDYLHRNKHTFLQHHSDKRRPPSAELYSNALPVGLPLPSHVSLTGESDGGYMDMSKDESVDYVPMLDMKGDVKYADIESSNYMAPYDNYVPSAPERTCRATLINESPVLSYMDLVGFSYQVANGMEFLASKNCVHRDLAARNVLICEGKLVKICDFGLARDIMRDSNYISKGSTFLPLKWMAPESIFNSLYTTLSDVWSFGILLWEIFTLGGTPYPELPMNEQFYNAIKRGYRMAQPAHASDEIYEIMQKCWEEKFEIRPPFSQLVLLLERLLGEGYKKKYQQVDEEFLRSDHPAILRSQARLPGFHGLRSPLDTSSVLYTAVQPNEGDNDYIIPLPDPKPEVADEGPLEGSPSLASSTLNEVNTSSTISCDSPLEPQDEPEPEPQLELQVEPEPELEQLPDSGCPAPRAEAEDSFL

T1 sequence (P06239 whole entry, species assumed, the tested form may be a part): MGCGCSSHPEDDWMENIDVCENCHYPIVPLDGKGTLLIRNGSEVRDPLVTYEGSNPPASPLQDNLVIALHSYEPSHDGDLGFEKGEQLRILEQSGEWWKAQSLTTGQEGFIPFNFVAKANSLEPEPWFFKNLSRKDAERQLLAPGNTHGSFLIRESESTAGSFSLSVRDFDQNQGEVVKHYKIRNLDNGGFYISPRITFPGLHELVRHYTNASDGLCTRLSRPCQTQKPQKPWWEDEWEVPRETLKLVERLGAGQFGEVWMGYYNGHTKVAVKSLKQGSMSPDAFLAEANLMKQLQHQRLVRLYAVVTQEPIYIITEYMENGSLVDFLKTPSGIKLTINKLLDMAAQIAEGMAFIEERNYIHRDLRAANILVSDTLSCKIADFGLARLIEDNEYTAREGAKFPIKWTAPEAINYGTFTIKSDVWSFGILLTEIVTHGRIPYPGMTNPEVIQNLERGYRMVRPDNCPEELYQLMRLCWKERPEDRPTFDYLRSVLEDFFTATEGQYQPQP

Row | SMILES | IC50 (Lck) [µM] | IC50 (Zap-70) [µM] | IC50 (Itk) [µM] | IC50 (EGFR) [µM] | IC50 (ErbB2) [µM] | IC50 (Kdr) [µM] | IC50 (c-Met) [µM] | IC50 (AKT) [µM] | IC50 (IGFR-1) [µM] | IC50 (PDGFRB) [µM]
1 | COc1ccc(Nc2ncnc(Nc3ccc4c(c3)CCC4)n2)cc1OC [Compound 896] | > 12.4 | > 12.4 | 6.6 to 9.63 | 1.1 to 6.6 | 1.1 to 6.6 | 6.6 to 9.63 | 1.1 to 6.6 | 6.6 to 9.63 | 1.1 to 6.6 | < 1.1
2 | COc1ccc(Nc2ncnc(Nc3cccc(C#N)c3)n2)cc1OC [Compound 897] | > 12.9 | > 12.9 | 6.89 to 10 | < 1.15 | > 12.9 | > 12.9 | > 12.9 | > 12.9 | > 12.9 | < 1.15
3 | COc1ccc(Nc2ncnc(Nc3cc(Cl)cc(Cl)c3)n2)cc1OC [Compound 898] | > 11.5 | > 11.5 | > 11.5 | 6.12 to 8.92 | > 11.5 | > 11.5 | > 11.5 | > 11.5 | 6.12 to 8.92 | 8.92 to 11.5
4 | COc1ccc(Nc2ncnc(Nc3ccc(N4CCCCC4)cc3)n2)cc1OC [Compound 899] | 0.984 to 5.9 | > 11.1 | 0.984 to 5.9 | 0.984 to 5.9 | 0.984 to 5.9 | 0.984 to 5.9 | 0.984 to 5.9 | 5.9 to 8.61 | 5.9 to 8.61 | < 0.984
5 | c1ccc(Cn2ncc3cc(Nc4ncnc(Nc5ccc6ncsc6c5)n4)ccc32)cc1 [Compound 900] | 0.888 to 5.33 | 5.33 to 7.77 | 0.888 to 5.33 | < 0.888 | < 0.888 | < 0.888 | < 0.888 | < 0.888 | 0.888 to 5.33 | 0.888 to 5.33
6 | Cc1nccc(-c2cccc(Nc3ncnc(Nc4ccc5c(cnn5Cc5ccccc5)c4)n3)c2)n1 [Compound 901] | 0.824 to 4.94 | > 9.27 | 0.824 to 4.94 | < 0.824 | 0.824 to 4.94 | 0.824 to 4.94 | 0.824 to 4.94 | 0.824 to 4.94 | > 9.27 | < 0.824
7 | Fc1ccc(Nc2ncnc(Nc3ccc4c(cnn4Cc4ccccc4)c3)n2)cc1F [Compound 902] | > 10.5 | > 10.5 | > 10.5 | < 0.931 | 0.931 to 5.59 | > 10.5 | 0.931 to 5.59 | 0.931 to 5.59 | 5.59 to 8.15 | > 10.5
8 | FC(F)(F)Oc1ccc(Nc2ncnc(Nc3ccc4c(cnn4Cc4ccccc4)c3)n2)cc1 [Compound 906] | > 9.43 | > 9.43 | > 9.43 | 0.838 to 5.03 | 0.838 to 5.03 | 0.838 to 5.03 | 0.838 to 5.03 | 0.838 to 5.03 | 5.03 to 7.33 | > 9.43
9 | Nc1nc2ccccc2n1-c1ncnc(Nc2cccc(Cn3ccnn3)c2)n1 [Compound 960] | 1.04 to 6.24 | > 11.7 | 1.04 to 6.24 | 6.24 to 9.1 | 6.24 to 9.1 | < 1.04 | 9.1 to 11.7 | > 11.7 | < 1.04 | 9.1 to 11.7

Further lines, results first:

Row | IC50 (Lck) [µM] | IC50 (Zap-70) [µM] | IC50 (Itk) [µM] | IC50 (EGFR) [µM] | IC50 (ErbB2) [µM] | IC50 (Kdr) [µM] | IC50 (c-Met) [µM] | IC50 (AKT) [µM] | IC50 (IGFR-1) [µM] | IC50 (PDGFRB) [µM] | SMILES
10 | > 9.45 | > 9.45 | > 9.45 | < 0.84 | 5.04 to 7.35 | > 9.45 | 5.04 to 7.35 | > 9.45 | > 9.45 | 5.04 to 7.35 | CN(c1ccc(Cl)c(Cl)c1)c1ncnc(Nc2ccc3c(cnn3Cc3ccccc3)c2)n1 [Compound 903]
11 | 0.945 to 5.67 | > 10.6 | 8.26 to 10.6 | < 0.945 | 0.945 to 5.67 | 5.67 to 8.26 | 0.945 to 5.67 | 8.26 to 10.6 | 5.67 to 8.26 | 0.945 to 5.67 | COc1cccc(Nc2ncnc(Nc3ccc4c(cnn4Cc4ccccc4)c3)n2)c1 [Compound 904]
12 | > 10.6 | > 10.6 | 0.945 to 5.67 | < 0.945 | 0.945 to 5.67 | 0.945 to 5.67 | 0.945 to 5.67 | > 10.6 | > 10.6 | 0.945 to 5.67 | COc1ccc(Nc2ncnc(Nc3ccc4c(cnn4Cc4ccccc4)c3)n2)cc1 [Compound 905]
13 | > 9.43 | > 9.43 | > 9.43 | < 0.838 | 0.838 to 5.03 | > 9.43 | 5.03 to 7.33 | > 9.43 | > 9.43 | > 9.43 | FC(F)(F)Oc1cccc(Nc2ncnc(Nc3ccc4c(cnn4Cc4ccccc4)c3)n2)c1 [Compound 907]
14 | 5.67 to 8.27 | > 10.6 | 5.67 to 8.27 | < 0.945 | < 0.945 | 0.945 to 5.67 | > 10.6 | > 10.6 | 0.945 to 5.67 | 8.27 to 10.6 | Brc1cccc(Nc2ncnc(Nc3cccc(Cn4ccnn4)c3)n2)c1 [Compound 961]
